# pIC50: −log10 of the molar value.
# Key:
# [1] = tested on: human breast adenocarcinoma; conditions: cited from earlier work
# [2] = tested on: Hs 68 Newborn Foreskin Fibroblasts; assay: in vitro cytotoxicity, normal cells; assay type: cell-based; conditions: Homo sapiens
# [3] = tested on: MCF7/0 human breast adenocarcinoma cells; assay: flow cytometry P-glycoprotein function assay of doxorubicin efflux, MCF7/0 (doxorubicin sensitive); assay type: cell-based
# Experimental: (§1) The following tests were preformed to determine the effect of NDGA on efflux of doxorubicin (hereinafter sometimes referred to as DOX) for doxorubicin sensitive MCF7/0 and doxorubicin resistant MCF7/ADR human breast adenocarcinoma cells in vitro.
# (§2) The cells were exposed to 50 μg/ml NDGA for 24 hrs prior to loading with DOX (doxorubicin) at 37° C. […] PBS. Flow analysis of cell efflux of DOX was collected over 30 minutes using the time parameter.
# (§3) Procedure for P-Glycoprotein (PGP) Function Assay of Doxorubicin Efflux is shown hereunder.
# (§4) 1. […] Store at room temperature.
# (§5) 2. Doxorubicin (GFW=580) Make a solution of doxorubicin to contain 10 μg/ml. Store frozen at 0° C.
# (§6) 4. NDGA (MW=302.36) Make a solution of NDGA to contain 50 μg/ml. Store frozen at 0° C.
# (§7) 5. MCF7/0 (Doxorubicin sensitive) and MCF7/ADR (Doxorubicin resistant), human breast adenocarcinoma cell lines.
# (§8) 1. Make up 2×10^6 cells per ml in PBS. Expose 1 ml of cells to 50 μg of NDGA for 24 hrs at 37° C. prior to loading with Doxorubicin.
# (§9) 2. Add 1 ml of 10 μg/ml doxorubicin, mix and divide into two aliquots.
# (§10) 4. Incubate both tubes at 37° C. for 30 minutes.
# (§11) 5. Centrifuge the tubes at 37° C. for 5 minutes on a fast spin to pellet cells. Resuspend in 1 ml of buffer.
# (§12) 6. Run immediately on the flow cytometer. Excitation 488 nm, emission 560-600 nm. Collect forward and 90° side scatter and PMT4 linear scale. Collect 10,000-50,000 events and calculate the mean channel fluorescence (MCF) for PMT4.
# (§13) 7. Run both samples as close together as possible, and avoid prolonged exposure to room temperature.
# [4] = tested on: Lung (NCI-H23) cancer cells; assay: in vitro cytotoxicity anti tumor activity; assay type: cell-based; conditions: Homo sapiens
# SNB Glioblastoma cells = assay: in vitro cytotoxicity anti tumor activity; assay type: cell-based
# [5] = tested on: OVCAR3 ovarian cancer cells; assay: in vitro cytotoxicity anti tumor activity; assay type: cell-based; conditions: Homo sapiens
# LOX-IMVI Melanoma cells = assay: in vitro cytotoxicity anti tumor activity; assay type: cell-based; conditions: Homo sapiens
# Lung (LX-1) cancer cells = assay: in vitro cytotoxicity anti tumor activity; assay type: cell-based; conditions: 1 h
# [6] = tested on: Detroit 551 Skin Fibroblasts; assay: in vitro cytotoxicity, normal cells; assay type: cell-based; conditions: Homo sapiens
# WI-38 Lung Fibroblasts = assay: in vitro cytotoxicity, normal cells; assay type: cell-based; conditions: Homo sapiens
# [7] = tested on: MCF7/ADR human breast adenocarcinoma cells; assay: flow cytometry P-glycoprotein function assay of doxorubicin efflux, MCF7/ADR (doxorubicin resistant); assay type: cell-based
# Experimental: as §1, §2, §3, §4, §5, §6, §7, §8, §9, §10, §11, §12, §13
# DLD-1 Colon cancer cells = assay: in vitro cytotoxicity anti tumor activity; assay type: cell-based; conditions: Homo sapiens
# CAK-1 Renal cancer cells = assay: in vitro cytotoxicity anti tumor activity; assay type: cell-based
# [8] = tested on: GRC-1 multidrug resistant human cervical carcinoma cells; assay: inhibition of colony formation, GRC-1; assay type: cell-based
# Text: (§14) To investigate whether masoprocol modulates multidrug resistance, a line of multidrug resistant (GRC-1) cells which were derived from parenteral drug sensitive human cervical carcinoma (KB-3-1) cells by transfection of the mdr1 genes were employed. Such transfection was by the method set forth in Choi, et al., Cell 53:519-529, 1989. These cell lines differ only with respect to the over-expression of P-glycoprotein. These tests were designed to examine whether masoprocol modulates tumor cell drug resistance by interfering with P-glycoprotein function. […] See, Regulation of initial vinblastine influx by P-glycoprotein, Shalinsky, et al., cited above.
# Masoprocol was provided by Chemex Pharmaceuticals, Inc. (Fort Lee, N.J.). Tritiated vinblastine ([^3 H]VBL) (10 Ci mmol^-1) was purchased from Moravek Biochemicals (Brea, Calif.), stored in the dark at -80° C. and protected from light during the experiments. Dipyridamole (DPM) was provided by Boerhinger Ingelheim Pharmaceuticals, Inc. (Ridgefield, Conn.).
# Drug-sensitive KB-3-1 cells and the drug resistant subline (KB-GRC-1) were obtained from Dr. Igor Roninson (University of Illinois, College of Medicine, Chicago, Ill.). Cells were maintained in Dulbecco's modified Eagle's medium supplemented with 10% fetal bovine serum and 2 mM glutamine. The KB-GRC-1 cells were maintained in medium supplemented with 6 ng/ml colchicine.
# (§15) First, cells which had been seeded at 200-300 cells/dish were incubated in media containing masoprocol or VBL. After an incubation period of 10 days at 37° C. the cells were fixed with methanol and stained with Giemsa, and the number of colonies per dish were counted and expressed as a percent of the number of colonies in control conditions. […] Parenthesis indicate standard deviations determined from replicate experiments.
# P-glycoprotein [9] = conditions: known, Shalinsky et al.; cited from earlier work
# [10] = tested on: KB-3-1 human cervical carcinoma cells; assay: inhibition of colony formation, KB-3-1; assay type: cell-based; conditions: KB 3-1, 240 h, read-out: IC50 (VBL), 50% inhibition of colony formation
# Text: as §14
# Masoprocol was provided by Chemex Pharmaceuticals, Inc. (Fort Lee, N.J.). Tritiated vinblastine ([^3 H]VBL) (10 Ci mmol^-1) was purchased from Moravek Biochemicals (Brea, Calif.), stored in the dark at -80° C. and protected from light during the experiments. […]
# as §15
# P-glycoprotein [11] = conditions: cited from earlier work
# [12] = No NDGA, DOX + Verapamil (30 μl of a 1 mM solution)
# [13] = No NDGA, DOX alone, 5 μg×30 min, 37° C.
# [14] = RX NDGA (50 μg/ml, 24 hrs), DOX
# [15] = RX NDGA (50 μg/ml, 24 hrs), DOX + Verapamil
smiles,measurement,setting,value
"C[C@@H](Cc1ccc(O)c(O)c1)[C@@H](C)Cc1ccc(O)c(O)c1 (relative stereo) [d,l NDGA]",effectiveness against human breast adenocarcinoma,[1],particularly effective
"COc1cc(CC(C)C(C)Cc2ccc(O)c(OC)c2)ccc1O (centres unmarked) [1,4-bis(3'-methoxy-4'-hydroxyphenyl)-2,3-dimethyl butane]",effectiveness against human breast adenocarcinoma,[1],particularly effective
"COc1cc(CCCCc2ccc(O)c(OC)c2)ccc1O [1,4-bis(3'-methoxy-4'-hydroxyphenylbutane]",effectiveness against human breast adenocarcinoma,[1],particularly effective
"Oc1ccc(CCCCc2cc(O)c(O)c(O)c2)cc1O [1-(3',4'-dihydroxyphenyl)-4(3',4',5'-trihydroxyphenyl)-butane]",effectiveness against human breast adenocarcinoma,[1],particularly effective
"Oc1ccc(CCCCc2ccc(O)c(O)c2O)cc1O [1-(3',4'-dihydroxyphenyl)-4-(2',3',4'-trihydroxphenyl)-butane]",effectiveness against human breast adenocarcinoma,[1],particularly effective
"Oc1ccc(O)c(CCCCc2ccc(O)c(O)c2)c1 [1-(3',4'-dihydroxyphenyl)-4-(2',5'-dihydroxyphenyl)-butane]",effectiveness against human breast adenocarcinoma,[1],particularly effective
"Oc1ccc(CCCCc2ccccc2)cc1O [1-(3',4'-dihydroxyphenyl)-4-phenyl butane]",effectiveness against human breast adenocarcinoma,[1],particularly effective
COc1cccc2c1C(=O)c1c(O)c3c(c(O)c1C2=O)C[C@@](O)(C(=O)CO)C[C@@H]3O[C@H]1C[C@H](N)[C@H](O)[C@H](C)O1 [Doxorubicin],pIC50,"[2]; Hs68, 1 h",4.94
same,pIC50,"[2]; Hs68, 70 h",6.92
same,Mean channel fluorescence (loading of DOX in cells),[3]; [12],312.8
same,Mean channel fluorescence (loading of DOX in cells),[3]; [13],318.7
same,Mean channel fluorescence (loading of DOX in cells),[3]; [14],460.4
same,Mean channel fluorescence (loading of DOX in cells),[3]; [15],435.6
same,pIC50,"[4]; NCI-H23, 1 h",5.03
same,pIC50,"[4]; NCI-H23, 70 h",6.82
same,pIC50,SNB Glioblastoma cells; 1 h,6.15
same,pIC50,SNB Glioblastoma cells; 70 h,7.52
same,pIC50,"[5]; OVCAR-3, 1 h",4.86
same,pIC50,"[5]; OVCAR-3, 70 h",6.15
same,pIC50,LOX-IMVI Melanoma cells; 1 h,5.32
same,pIC50,LOX-IMVI Melanoma cells; 70 h,7.05
same,pIC50,Lung (LX-1) cancer cells,4.59
same,pIC50,"[6]; Detroit 551, 1 h",5.49
same,pIC50,"[6]; Detroit 551, 70 h",5.26
same,pIC50,"WI-38 Lung Fibroblasts; WI-38, 1 h",5.00
same,pIC50,"WI-38 Lung Fibroblasts; WI-38, 70 h",6.22
same,Mean channel fluorescence (loading of DOX in cells),[7]; [12],309.9
same,Mean channel fluorescence (loading of DOX in cells),[7]; [13],227.4
same,Mean channel fluorescence (loading of DOX in cells),[7]; [14],285.6
same,Mean channel fluorescence (loading of DOX in cells),[7]; [15],365.4
same,pIC50,"DLD-1 Colon cancer cells; DLD-1, 1 h",5.43
same,pIC50,"DLD-1 Colon cancer cells; DLD-1, 70 h",6.38
same,pIC50,CAK-1 Renal cancer cells; 1 h,5.42
same,pIC50,CAK-1 Renal cancer cells; 70 h,6.96
CC(=O)Oc1ccc(C[C@@H](C)[C@@H](C)Cc2ccc(OC(C)=O)c(OC(C)=O)c2)cc1OC(C)=O [NDGA Tetracetate],effectiveness against human breast adenocarcinoma,[1],particularly effective
CCC(=O)Oc1ccc(C[C@@H](C)[C@@H](C)Cc2ccc(OC(=O)CC)c(OC(=O)CC)c2)cc1OC(=O)CC [NDGA Tetrapropionate],effectiveness against human breast adenocarcinoma,[1],particularly effective
CC[C@]1(O)C[C@@H]2CN(CCc3c([nH]c4ccccc34)[C@@](C(=O)OC)(c3cc4c(cc3OC)N(C)[C@H]3[C@@](O)(C(=O)OC)[C@H](OC(C)=O)[C@]5(CC)C=CCN6CC[C@]43[C@@H]65)C2)C1 [VBL],sensitivity of GRC-1 compared with KB-3-1 cells,[8]; GRC-1 vs KB-3-1,large differences in sensitivity
same,pIC50,"[8]; Homo sapiens, 240 h, read-out: IC50 (VBL), 50% inhibition of colony formation",7.28
same,P-glycoprotein substrate,P-glycoprotein [9],known to be a P-glycoprotein substrate
same,pIC50,[10],8.86
same,steady state accumulation and efflux in cells overexpressing mdr1,P-glycoprotein [11],decreased steady state accumulation and increased efflux

# — US5541232A, “Treatment of multidrug resistant diseases” (Chemex Pharmaceuticals, Inc., priority 1994, dated 1996)
